PubChem BioAssay AID192 (DTP/NCI, 2004)
Values joined by “and” are separate entries in the source; they are usually repeats but may differ in a detail not shown here. Equal entries are not always repeated. Toxic doses and inconclusive results are not listed.

Test system: BDF1 mice, B16 melanoma ip, median survival T/C
Assay: NCI In Vivo Anticancer Drug Screen. Data for tumor model B16 Melanoma (intraperitoneal) in B6D2F1 (BDF1) mice
Details: endpoint: median survival time, higher = longer survival
How it was run: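 Mice with transplantable tumors; drug vs vehicle groups; endpoint survival or tumor size; value = T/C.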

[1] = dose: 100.0 mg/kg/injection, schedule: Q01DX009 (ip), vehicle: Klucel (hydroxypropylcellulose) (HPC)
[2] = dose: 200.0 mg/kg/injection, schedule: Q01DX009 (ip), vehicle: Klucel (hydroxypropylcellulose) (HPC)
[3] = dose: 12.5 mg/kg/injection, schedule: Q01DX009 (ip), vehicle: saline
[4] = dose: 6.25 mg/kg/injection, schedule: Q01DX009 (ip), vehicle: Klucel (hydroxypropylcellulose) (HPC)
[5] = dose: 12.5 mg/kg/injection, schedule: Q01DX009 (ip), vehicle: Klucel (hydroxypropylcellulose) (HPC)
[6] = dose: 25.0 mg/kg/injection, schedule: Q01DX009 (ip), vehicle: Klucel (hydroxypropylcellulose) (HPC)
[7] = dose: 50.0 mg/kg/injection, schedule: Q01DX009 (ip), vehicle: Klucel (hydroxypropylcellulose) (HPC)
[8] = dose: 100.0 mg/kg/injection, schedule: Q01DX009 (ip), vehicle: saline with Tween-80
[9] = dose: 200.0 mg/kg/injection, schedule: Q01DX009 (ip), vehicle: saline with Tween-80
[10] = dose: 400.0 mg/kg/injection, schedule: Q01DX009 (ip), vehicle: saline with Tween-80
[11] = dose: 50.0 mg/kg/injection, schedule: Q01DX009 (ip), vehicle: saline with Tween-80

For `CCOC12c3ccccc3N(S(C)(=O)=O)C(C)C1C2(Br)Br` (stereo unspecified), the T/C (dose: 75.0 mg/kg/injection, schedule: Q04DX003 (ip), vehicle: Klucel (hydroxypropylcellulose) (HPC)) was 104 % of control, the T/C (dose: 150.0 mg/kg/injection, schedule: Q04DX003 (ip), vehicle: Klucel (hydroxypropylcellulose) (HPC)) was 87 % of control and the T/C (dose: 300.0 mg/kg/injection, schedule: Q04DX003 (ip), vehicle: Klucel (hydroxypropylcellulose) (HPC)) was 107 % of control.

In the case of `Clc1ccc2c(c1)C(Nc1cc3c4ccccc4ccc3c3ccccc13)c1cc(Cl)cc(Cl)c1-2` (stereo unspecified), the T/C (dose: 6.25 mg/kg/injection, schedule: Q01DX009 (ip), vehicle: saline with Tween-80) is reported as 86 % of control.

`Cc1cc(C)c(NC(=O)Nc2ccc(Cl)cc2)c(C)c1` was tested, and the T/C [1] was 93 % of control and the T/C [2] was 93 % of control.

With `Nc1ncnc2c1ncn2C1OC(COP(=O)(O)O)C(O)C1O` (stereo unspecified) the T/C [3] was 124 % of control, the T/C (dose: 12.5 mg/kg/injection, schedule: Q01DX009 (ip), vehicle: water) was 112 % of control and the T/C (dose: 20.0 mg/kg/injection, schedule: Q01DX009 (ip), vehicle: water) was 113 % of control. The T/C (dose: 25.0 mg/kg/injection, schedule: Q01DX009 (ip), vehicle: water) was 108 % of control, the T/C (dose: 40.0 mg/kg/injection, schedule: Q01DX009 (ip), vehicle: water) was 110 % of control and the T/C (dose: 50.0 mg/kg/injection, schedule: Q01DX009 (ip), vehicle: saline) was 116 % of control. The T/C (dose: 50.0 mg/kg/injection, schedule: Q01DX009 (ip), vehicle: water) was 108 % of control, the T/C (dose: 80.0 mg/kg/injection, schedule: Q01DX009 (ip), vehicle: water) was 104 % of control and the T/C (dose: 100.0 mg/kg/injection, schedule: Q01DX009 (ip), vehicle: saline) was 121 % of control. The T/C (dose: 100.0 mg/kg/injection, schedule: Q01DX009 (ip), vehicle: water) was 118 % of control, the T/C (dose: 160.0 mg/kg/injection, schedule: Q01DX009 (ip), vehicle: water) was 113 % of control and the T/C (dose: 200.0 mg/kg/injection, schedule: Q01DX009 (ip), vehicle: water) was 118 % of control. The T/C (dose: 320.0 mg/kg/injection, schedule: Q01DX009 (ip), vehicle: water) was 124 % of control and the T/C (dose: 400.0 mg/kg/injection, schedule: Q01DX009 (ip), vehicle: water) was 117 % of control.

In the case of `O=[N+]([O-])O.[NH-]C1CCCCC1[NH-].[NH-]C1CCCCC1[NH-].[OH-].[OH-].[Pt+4].[Pt+4]` (stereo unspecified), the T/C (dose: 0.25 mg/kg/injection, schedule: Q01DX009 (ip), vehicle: water) is reported as 110 % of control and 111 % of control and the T/C (dose: 0.5 mg/kg/injection, schedule: Q01DX009 (ip), vehicle: water) is reported as 120 % of control and 124 % of control.

In the case of `CN(C(=S)S(=O)(=O)C12CC3CC(CC(C3)C1)C2)c1ccccc1`, the T/C (dose: 3.12 mg/kg/injection, schedule: Q01DX009 (ip), vehicle: Klucel (hydroxypropylcellulose) (HPC)) is reported as 98 % of control, the T/C [4] is reported as 98 % of control and the T/C [5] is reported as 95 % of control. For the same compound, the T/C [6] was 95 % of control and the T/C [7] was 88 % of control.

For `COc1cccc(/C=C/C(=O)O)c1OC`, the T/C (dose: 50.0 mg/kg/injection, schedule: Q01DX009 (ip), vehicle: other) was 101 % of control, the T/C (dose: 100.0 mg/kg/injection, schedule: Q01DX009 (ip), vehicle: other) was 107 % of control and the T/C (dose: 200.0 mg/kg/injection, schedule: Q01DX009 (ip), vehicle: other) was 98 % of control. For the same compound, the T/C (dose: 400.0 mg/kg/injection, schedule: Q01DX009 (ip), vehicle: other) was 93 % of control.

In the case of `NC1c2cc(Cl)ccc2-c2c(Cl)cc(Cl)cc21` (stereo unspecified), the T/C [8] is reported as 109 % of control, the T/C [9] is reported as 111 % of control and the T/C [10] is reported as 102 % of control.

In the case of `CCOC(=O)c1c(NC(=O)CCC(=O)Nc2sc(C)c(C)c2C(=O)OCC)sc(C)c1C`, the T/C (dose: 0.09 mg/kg/injection, schedule: Q01DX009 (ip), vehicle: Klucel (hydroxypropylcellulose) (HPC)) is reported as 100 % of control, the T/C (dose: 0.19 mg/kg/injection, schedule: Q01DX009 (ip), vehicle: Klucel (hydroxypropylcellulose) (HPC)) is reported as 95 % of control and the T/C (dose: 0.39 mg/kg/injection, schedule: Q01DX009 (ip), vehicle: Klucel (hydroxypropylcellulose) (HPC)) is reported as 100 % of control. The T/C (dose: 0.78 mg/kg/injection, schedule: Q01DX009 (ip), vehicle: Klucel (hydroxypropylcellulose) (HPC)) was 89 % of control and the T/C (dose: 1.56 mg/kg/injection, schedule: Q01DX009 (ip), vehicle: Klucel (hydroxypropylcellulose) (HPC)) was 95 % of control.

`CCC(C)C1NC(=O)C(NC(=O)c2c3nc4c(C(=O)NC5C(=O)NC(C(C)CC)C(=O)N6CCCC6C(=O)N(C)CC(=O)N(C)C(C(C)C)C(=O)OC5C)cc([N+](=O)[O-])c(C)c4oc-3c(C)c(=O)c2N)C(C)OC(=O)C(C(C)C)N(C)C(=O)CN(C)C(=O)C2CCCN2C1=O` (stereo unspecified) was tested, and the T/C (dose: 25.0 micrograms/kg/injection, schedule: Q01DX009 (ip), vehicle: water) was 110 % of control, the T/C (dose: 50.0 micrograms/kg/injection, schedule: Q01DX009 (ip), vehicle: water) was 119 % of control and the T/C (dose: 100.0 micrograms/kg/injection, schedule: Q01DX009 (ip), vehicle: water) was 124 % of control. For the same compound, the T/C (dose: 400.0 micrograms/kg/injection, schedule: Q01DX009 (ip), vehicle: water) was 160 % of control.

`COc1ccc(CCNC(=S)NCCc2ccc(OC)c(OC)c2)cc1OC` was tested, and the T/C [1] was 86 % of control, the T/C [2] was 92 % of control and the T/C (dose: 400.0 mg/kg/injection, schedule: Q01DX009 (ip), vehicle: Klucel (hydroxypropylcellulose) (HPC)) was 115 % of control.

In the case of `Cc1cc(C)c(NC(=O)Nc2cccc3ccccc23)c(C)c1`, the T/C [6] is reported as 91 % of control and the T/C [7] is reported as 95 % of control.

In the case of `CNCCC=C1c2ccccc2CCc2ccccc21`, the T/C (dose: 6.25 mg/kg/injection, schedule: Q01DX009 (ip), vehicle: saline) is reported as 102 % of control, the T/C [3] is reported as 97 % of control and the T/C (dose: 25.0 mg/kg/injection, schedule: Q01DX009 (ip), vehicle: saline) is reported as 102 % of control.

For `Cc1ccccc1OCC(O)CO` (stereo unspecified), the T/C [11] was 92 % of control, the T/C [8] was 110 % of control and the T/C [9] was 110 % of control. The T/C [10] was 105 % of control.

For `COc1cc2c(c(OC)c1OC)-c1ccc(OC)c(=O)cc1[C@@H](NC(=O)CCl)CC2`, the T/C (dose: 0.25 mg/kg/injection, schedule: Q01DX009 (ip), vehicle: saline with Tween-80) was 154 % of control and the T/C (dose: 0.5 mg/kg/injection, schedule: Q01DX009 (ip), vehicle: saline with Tween-80) was 161 % of control.

With `OC(C#Cc1ccccc1)c1ccccc1` (stereo unspecified) the T/C (dose: 50.0 mg/kg/injection, schedule: Q04DX003 (ip), vehicle: saline with Tween-80) was 108 % of control, the T/C (dose: 100.0 mg/kg/injection, schedule: Q04DX003 (ip), vehicle: saline with Tween-80) was 97 % of control and the T/C (dose: 200.0 mg/kg/injection, schedule: Q04DX003 (ip), vehicle: saline with Tween-80) was 98 % of control.

In the case of `O=P(NC12CC3CC(CC(C3)C1)C2)(N1CC1)N1CC1`, the T/C (dose: 4.4 mg/kg/injection, schedule: Q01DX009 (ip), vehicle: Klucel (hydroxypropylcellulose) (HPC)) is reported as 100 % of control and the T/C (dose: 6.6 mg/kg/injection, schedule: Q01DX009 (ip), vehicle: Klucel (hydroxypropylcellulose) (HPC)) is reported as 110 % of control.

With `CCCC(C)C(C(=O)O)c1ccccc1` (stereo unspecified) the T/C [8] was 110 % of control, the T/C [9] was 106 % of control and the T/C (dose: 300.0 mg/kg/injection, schedule: Q01DX009 (ip), vehicle: saline with Tween-80) was 91 % of control.

With `CCNc1nc(NCC)nc(SC)n1` the T/C (dose: 25.0 mg/kg/injection, schedule: Q01DX009 (ip), vehicle: saline with Tween-80) was 97 % of control, the T/C [11] was 87 % of control and the T/C [8] was 105 % of control.

`C[C@@H]1CC2=CC(=O)C=C[C@]2(C)[C@H]2CC[C@@]3(C)[C@@H](CC[C@]3(C)O)[C@H]12` was tested, and the T/C [4] was 107 % of control, the T/C [5] was 103 % of control and the T/C [6] was 102 % of control. The T/C [7] was 95 % of control and the T/C [1] was 93 % of control.

In the case of `C/C=C1\CN(C)[C@H]2Cc3c([nH]c4ccccc34)[C@@H](c3cc4[nH]c5c(c4cc3OC)CCN3C[C@H]4C[C@H](CC)[C@H]3[C@@]5(C(=O)OC)C4)C[C@H]1C2C(=O)OC` (stereo partly specified), the T/C (dose: 2.5 mg/kg/injection, schedule: Q01DX009 (ip), vehicle: suspension in saline) is reported as 98 % of control, the T/C (dose: 3.0 mg/kg/injection, schedule: Q01DX009 (ip), vehicle: saline with Tween-80) is reported as 100 % of control and the T/C (dose: 5.0 mg/kg/injection, schedule: Q01DX009 (ip), vehicle: suspension in saline) is reported as 101 % of control. The T/C (dose: 6.0 mg/kg/injection, schedule: Q01DX009 (ip), vehicle: saline with Tween-80) was 95 % of control, the T/C (dose: 10.0 mg/kg/injection, schedule: Q01DX009 (ip), vehicle: suspension in saline) was 99 % of control and the T/C (dose: 12.0 mg/kg/injection, schedule: Q01DX009 (ip), vehicle: saline with Tween-80) was 106 % of control. For the same compound, the T/C (dose: 25.0 mg/kg/injection, schedule: Q04DX003 (ip), vehicle: saline with Tween-80) was 90 % of control and the T/C [8] was 87 % of control.
